US6914045B2, “Glycopeptide antibiotics” (Wyeth Holdings Corporation, priority 2001, dated 2005)
≈ marks a conversion by molar mass, not a printed value.

How the values were obtained:
Test in all cases: in vitro antibacterial evaluation, MIC by broth dilution
Type in all cases: cell-based
Enterococcus sp. = conditions: broth dilution, 18 hours at 35° C.
Summary of the method: (§1)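 MIC = lowest antibiotic concentration preventing visible growth; inoculum 5×10^5 CFU/mL; drug range 64-0.06 μg/mL; Muller-Hinton II […]; NCCLS M7-A2 guidance.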

Streptococcus sp. = conditions: broth dilution, 18 hours at 35° C.
Summary of the method: as §1

Staphylococcus sp. = conditions: broth dilution, 18 hours at 35° C.; for MIC Staphylococcus aureus (GC 1131): strain GC 1131
Summary of the method: as §1

Escherichia coli = tested on: Escherichia coli
Summary of the method: as §1

Compound: COc1cc(OC)cc(C2OCC3OC(OC4C(CO)OC(Oc5ccc(CC6NC(=O)C(C(C)c7ccccc7)NC(=O)CNC(=O)C(CO)NC(=O)C(C(O)C7CNC(=N)N7C7OC(CO)C(O)C(O)C7O)NC(=O)C(C(O)C7CNC(=N)N7)NC6=O)cc5)C(O)C4O)C(O)C(O)C3O2)c1 (stereo not drawn) [Example 150]
- MIC Enterococcus avium (GC 4558) (Enterococcus sp.; Enterococcus avium (GC 4558)): 8 µg/mL (≈ 5.54 µM)
- MIC Enterococcus faecalis (ATCC 29212) (Enterococcus sp.; Enterococcus faecalis (ATCC 29212)): 8 µg/mL (≈ 5.54 µM)
- MIC Enterococcus faecalis (GC 2242) (Enterococcus sp.; Enterococcus faecalis (GC 2242)): 4 µg/mL (≈ 2.77 µM)
- MIC Enterococcus faecalis (GC 2691) (Enterococcus sp.; Enterococcus faecalis (GC 2691)): 4 µg/mL (≈ 2.77 µM)
- MIC Enterococcus faecalis (GC 3059) (Enterococcus sp.; Enterococcus faecalis (GC 3059)): 8 µg/mL (≈ 5.54 µM)
- MIC Enterococcus faecalis (GC 4552) (Enterococcus sp.; Enterococcus faecalis (GC 4552)): 8 µg/mL (≈ 5.54 µM)
- MIC Enterococcus faecalis (GC 4553) (Enterococcus sp.; Enterococcus faecalis (GC 4553)): 8 µg/mL (≈ 5.54 µM)
- MIC Enterococcus faecalis (GC 4554) (Enterococcus sp.; Enterococcus faecalis (GC 4554)): 8 µg/mL (≈ 5.54 µM)
- MIC Enterococcus faecalis (GC 6189) (Enterococcus sp.; Enterococcus faecalis (GC 6189)): 8 µg/mL (≈ 5.54 µM)
- MIC Enterococcus faecium (GC 2243) (Enterococcus sp.; Enterococcus faecium (GC 2243)): 8 µg/mL (≈ 5.54 µM)
- MIC Enterococcus faecium (GC 4556) (Enterococcus sp.; Enterococcus faecium (GC 4556)): 8 µg/mL (≈ 5.54 µM)
- MIC Enterococcus faecium (GC 4557) (Enterococcus sp.; Enterococcus faecium (GC 4557)): 4 µg/mL (≈ 2.77 µM)
- MIC Enterococcus faecalis (ATCC 29212) (Enterococcus sp.; strain ATCC 29212): 8 µg/mL (≈ 5.54 µM)
- MIC Enterococcus faecalis (GC 2242) (Enterococcus sp.; strain GC 2242): 4 µg/mL (≈ 2.77 µM)
- MIC Enterococcus faecium (GC 2243) (Enterococcus sp.; strain GC 2243): 8 µg/mL (≈ 5.54 µM)
- MIC Enterococcus faecalis (GC 2691) (Enterococcus sp.; strain GC 2691): 4 µg/mL (≈ 2.77 µM)
- MIC Enterococcus faecalis (GC 3059) (Enterococcus sp.; strain GC 3059): 8 µg/mL (≈ 5.54 µM)
- MIC Enterococcus faecalis (GC 4552) (Enterococcus sp.; strain GC 4552): 8 µg/mL (≈ 5.54 µM)
- MIC Enterococcus faecalis (GC 4553) (Enterococcus sp.; strain GC 4553): 8 µg/mL (≈ 5.54 µM)
- MIC Enterococcus faecalis (GC 4554) (Enterococcus sp.; strain GC 4554): 8 µg/mL (≈ 5.54 µM)
- MIC Enterococcus faecium (GC 4556) (Enterococcus sp.; strain GC 4556): 8 µg/mL (≈ 5.54 µM)
- MIC Enterococcus faecium (GC 4557) (Enterococcus sp.; strain GC 4557): 4 µg/mL (≈ 2.77 µM)
- MIC Enterococcus avium (GC 4558) (Enterococcus sp.; strain GC 4558): 8 µg/mL (≈ 5.54 µM)
- MIC Enterococcus faecalis (GC 6189) (Enterococcus sp.; strain GC 6189): 8 µg/mL (≈ 5.54 µM)
- MIC Streptococcus agalactiae (GC 4564) (Streptococcus sp.; Streptococcus agalactiae (GC 4564)): 1 µg/mL (≈ 0.693 µM)
- MIC Streptococcus pneumoniae (ATCC 6301) (Streptococcus sp.; Streptococcus pneumoniae (ATCC 6301)): 0.25 µg/mL (≈ 0.173 µM)
- MIC Streptococcus pneumoniae (GC 1894) (Streptococcus sp.; Streptococcus pneumoniae (GC 1894)): 0.12 µg/mL (≈ 0.0831 µM)
- MIC Streptococcus pneumoniae (GC 4565) (Streptococcus sp.; Streptococcus pneumoniae (GC 4565)): 0.25 µg/mL (≈ 0.173 µM)
- MIC Streptococcus pyogenes (GC 4563) (Streptococcus sp.; Streptococcus pyogenes (GC 4563)): 0.5 µg/mL (≈ 0.346 µM)
- MIC Streptococcus pneumoniae (ATCC 6301) (Streptococcus sp.; strain ATCC 6301): 0.25 µg/mL (≈ 0.173 µM)
- MIC Streptococcus pneumoniae (GC 1894) (Streptococcus sp.; strain GC 1894): 0.12 µg/mL (≈ 0.0831 µM)
- MIC Streptococcus pyogenes (GC 4563) (Streptococcus sp.; strain GC 4563): 0.5 µg/mL (≈ 0.346 µM)
- MIC Streptococcus agalactiae (GC 4564) (Streptococcus sp.; strain GC 4564): 1 µg/mL (≈ 0.693 µM)
- MIC Streptococcus pneumoniae (GC 4565) (Streptococcus sp.; strain GC 4565): 0.25 µg/mL (≈ 0.173 µM)
- MIC Staphylococcus aureus (GC 1131) (Staphylococcus sp.; inoculum 5×10^5 CFU/mL): 4 µg/mL (≈ 2.77 µM)
- MIC Staphylococcus aureus (ATCC 29213) (Staphylococcus sp.; strain ATCC 29213): 2 µg/mL (≈ 1.39 µM)
- MIC Staphylococcus aureus (GC 1131) (Staphylococcus sp.): 4 µg/mL (≈ 2.77 µM)
- MIC Staphylococcus aureus (GC 3051) (Staphylococcus sp.; strain GC 3051): 2 µg/mL (≈ 1.39 µM)
- MIC Staphylococcus aureus (GC 3053) (Staphylococcus sp.; strain GC 3053): 8 µg/mL (≈ 5.54 µM)
- MIC Staphylococcus aureus (GC 4541) (Staphylococcus sp.; strain GC 4541): 2 µg/mL (≈ 1.39 µM)
- MIC Staphylococcus aureus (GC 4542) (Staphylococcus sp.; strain GC 4542): 2 µg/mL (≈ 1.39 µM)
- MIC Staphylococcus aureus-SMITH (GC 4543) (Staphylococcus sp.; strain GC 4543): 2 µg/mL (≈ 1.39 µM)
- MIC Staphylococcus aureus (GC 4544) (Staphylococcus sp.; strain GC 4544): 2 µg/mL (≈ 1.39 µM)
- MIC Staphylococcus aureus (GC 4545) (Staphylococcus sp.; strain GC 4545): 2 µg/mL (≈ 1.39 µM)
- MIC Staphylococcus haemolyticus (GC 4546) (Staphylococcus sp.; strain GC 4546): 1 µg/mL (≈ 0.693 µM)
- MIC Coagulase Negative Staphylococcus (GC 4547) (Staphylococcus sp.; strain GC 4547): 2 µg/mL (≈ 1.39 µM)
- MIC Coagulase Negative Staphylococcus (GC 4548) (Staphylococcus sp.; strain GC 4548): 1 µg/mL (≈ 0.693 µM)
- MIC Coagulase Negative Staphylococcus (GC 4549) (Staphylococcus sp.; strain GC 4549): 1 µg/mL (≈ 0.693 µM)
- MIC Coagulase Negative Staphylococcus (GC 4551) (Staphylococcus sp.; strain GC 4551): 2 µg/mL (≈ 1.39 µM)
- MIC Coagulase Negative Staphylococcus (GC 6257) (Staphylococcus sp.; strain GC 6257): 1 µg/mL (≈ 0.693 µM)
- MIC Staphylococcus aureus-SMITH (GC 4543) (Staphylococcus sp.; strain SMITH GC 4543): 2 µg/mL (≈ 1.39 µM)
- MIC Escherichia coli (ATCC 25922) (Escherichia coli; strain ATCC 25922, 18 hours at 35° C.): >64 µg/mL
- MIC Escherichia coli (GC 4559) (Escherichia coli; strain GC 4559, 18 hours at 35° C.): 32 µg/mL (≈ 22.2 µM)
- MIC Escherichia coli (GC 4560) (Escherichia coli; strain GC 4560, 18 hours at 35° C.): 1 µg/mL (≈ 0.693 µM)
